The numbers were not newly measured in US20210196801A1, “Starting Dose of PTH Conjugates” (Ascendis Pharma Bone Diseases A/S, priority 2018, published 2021), which cites them from elsewhere.

Where two headings read alike, the source gives them in different places.

Test in data set [1]: not given
This is another data set of the same source.

With `CC[C@H](C)[C@H](NC(=O)[C@H](CCC(=O)O)NC(=O)[C@H](CO)NC(=O)[C@@H](NC(=O)[C@@H](N)CO)C(C)C)C(=O)N[C@@H](CCC(N)=O)C(=O)N[C@@H](CC(C)C)C(=O)N[C@@H](CCSC)C(=O)N[C@@H](Cc1cnc[nH]1)C(=O)N[C@@H](CC(N)=O)C(=O)N[C@@H](CC(C)C)C(=O)NCC(=O)N[C@@H](CCCCN)C(=O)N[C@@H](Cc1cnc[nH]1)C(=O)N[C@@H](CC(C)C)C(=O)N[C@@H](CC(N)=O)C(=O)N[C@@H](CO)C(=O)N[C@@H](CCSC)C(=O)N[C@@H](CCC(=O)O)C(=O)N[C@@H](CCCN=C(N)N)C(=O)N[C@H](C(=O)N[C@@H](CCC(=O)O)C(=O)N[C@@H](Cc1c[nH]c2ccccc12)C(=O)N[C@@H](CC(C)C)C(=O)N[C@@H](CCCN=C(N)N)C(=O)N[C@@H](CCCCN)C(=O)N[C@@H](CCCCN)C(=O)N[C@@H](CC(C)C)C(=O)N[C@@H](CCC(N)=O)C(=O)N[C@@H](CC(=O)O)C(=O)N[C@H](C(=O)N[C@@H](Cc1cnc[nH]1)C(=O)N[C@@H](CC(N)=O)C(=O)N[C@@H](Cc1ccccc1)C(=O)O)C(C)C)C(C)C` [Teriparatide], the half-life result is, setting by setting: (after IV administration) “about 5 minutes”; (after subcutaneous administration, due to prolonged absorption) about 1 h.
Regarding “Natpara: PTH(1-84), approved for once-daily subcutaneous injection in patients with hypoparathyroidism”, the half-life entry was “about 5 minutes” in data set [1] (IV) and “about 3 hours” in data set [1] (after subcutaneous administration).

Broadly, the half-life is the time needed for the level to fall by half in the phase considered.
